Counter-ions that a name gives are not always drawn. Like-named read-outs stand apart in the source and are kept apart here.
How the values were obtained:
[1] = molecular target: T1, Human fibrinogen receptor (αIIbβ3) (Homo sapiens, UniProt P05106+P08514); experiment: Purified IIb/IIIa receptor assay (solid phase receptor assay, competition with biotinylated vitronectin); type: binding; settings: read-out: IIb/IIIa IC50
T1 construct: Human fibrinogen receptor (αIIbβ3) was purified from outdated platelets; from tissue; host or cells: outdated human platelets
Procedure, shortened: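 Competition format: 1 nM biotinylated vitronectin plus test compound (highest 1.0×10^−4 M), 2 h at room temperature on wells coated with platelet-derived αIIbβ3. Buffer was TBS containing 1.0 mM Ca, Mg, Mn, pH 7.4. HRP anti-biotin readout at 450 nm; normalized to maximum binding, four-parameter curve fit.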

platelet rich plasma = experiment: Human platelet rich plasma assay (ADP induced platelet aggregation); type: cell-based; settings: Homo sapiens, Platelet, ADP induced platelet aggregation in human platelet rich plasma; read-out: Human PRP
Procedure, shortened: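 Citrated platelet-rich plasma from aspirin-free healthy human donors was stirred at 37 °C and preincubated with compound for 1 min. Aggregation was then triggered with ADP (added as a 200 uM solution) and recorded photometrically for 3 min. Dose–response curves were built from % inhibition of the maximal saline-control response.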

M21 human melanoma cells = experiment: M21 melanoma cell adhesion assay (αvβ3-dependent adhesion to human fibrinogen-coated plates); type: cell-based; settings: read-out: M21 Melanoma Cells IC50
Protocol: M21 MELANOMA CELL ADHESION ASSASY
This assay involves an αvβ3-dependent adhesion of M21 human melanoma cells to human fibrinogen-coated plastic tissue culture dishes.
Fibrinogen was purified from human plasma. Fibronectin and plasminogen were eliminated from the preparation by passing the sample over gelatin-sepharose 4B and lysine-sepharose 4B resins, respectively. The fibrinogen is diluted to 10 μg/mL in coating buffer ([…] Tris-HCl, 150 mM NaCl, pH 7.4). 100 μL of diluted fibrinogen is added to each well of a 96-well Immulon 2 microtiter plate (Dynatech; Chantilly, Va.) and allowed to coat overnight at 4° C. Plates are blocked with 1% BSA (Miles/Pentex; Kankakee, Ill.) in adhesion buffer (Hank's balanced salt solution without Ca^++ or Mg^++ [HBSS−−], 50 mM Hepes, 1 mg/mL BSA, pH 7.4) for 1 hour at 37° C.
M21 human melanoma cells were provided by Dr. J. Smith, La Jolla Cancer Research Institute. M21 cells are harvested from tissue culture flasks by washing with HBSS−− and adding cell dissociation solution (Sigma) and incubating for 5 minutes at 37° C. Harvested cells are washed 3 times with adhesion assay buffer containing 200 μM Mn^++. Cells are counted and suspended to a density of 2×10^6/mL in adhesion assay buffer containing 200 μM Mn^++. M21 cells are pre-incubated with antagonists of αvβ3 for 30 minutes at room temperature. Following the pre-incubation, the solutions containing a mixture of cells and antagonists are added to each well of the microtiter plate and allowed to bind for 30 minutes at 37° C.
Following adhesion, plates are gently washed 3 times with 200 μL of wash buffer (50 mM Tris-HCl, 150 mM NaCl, pH 7.4) using large bore pipet tips. Plates are briefly blotted dry and 100 μL of cell lysis buffer (50 mM sodium acetate, pH 5.0, 0.5% Triton X-100, 0.3 mg/mL p-nitrophenyl phosphate [Sigma] is added to each well. Plates are incubated for 60 minutes at 37° C. and 50 μL of 1N NaOH is added to stop the reaction. The absorbance of the wells at […] is read using an automatic plate reader.

T1 sequence (P08514 32-887 limits assumed): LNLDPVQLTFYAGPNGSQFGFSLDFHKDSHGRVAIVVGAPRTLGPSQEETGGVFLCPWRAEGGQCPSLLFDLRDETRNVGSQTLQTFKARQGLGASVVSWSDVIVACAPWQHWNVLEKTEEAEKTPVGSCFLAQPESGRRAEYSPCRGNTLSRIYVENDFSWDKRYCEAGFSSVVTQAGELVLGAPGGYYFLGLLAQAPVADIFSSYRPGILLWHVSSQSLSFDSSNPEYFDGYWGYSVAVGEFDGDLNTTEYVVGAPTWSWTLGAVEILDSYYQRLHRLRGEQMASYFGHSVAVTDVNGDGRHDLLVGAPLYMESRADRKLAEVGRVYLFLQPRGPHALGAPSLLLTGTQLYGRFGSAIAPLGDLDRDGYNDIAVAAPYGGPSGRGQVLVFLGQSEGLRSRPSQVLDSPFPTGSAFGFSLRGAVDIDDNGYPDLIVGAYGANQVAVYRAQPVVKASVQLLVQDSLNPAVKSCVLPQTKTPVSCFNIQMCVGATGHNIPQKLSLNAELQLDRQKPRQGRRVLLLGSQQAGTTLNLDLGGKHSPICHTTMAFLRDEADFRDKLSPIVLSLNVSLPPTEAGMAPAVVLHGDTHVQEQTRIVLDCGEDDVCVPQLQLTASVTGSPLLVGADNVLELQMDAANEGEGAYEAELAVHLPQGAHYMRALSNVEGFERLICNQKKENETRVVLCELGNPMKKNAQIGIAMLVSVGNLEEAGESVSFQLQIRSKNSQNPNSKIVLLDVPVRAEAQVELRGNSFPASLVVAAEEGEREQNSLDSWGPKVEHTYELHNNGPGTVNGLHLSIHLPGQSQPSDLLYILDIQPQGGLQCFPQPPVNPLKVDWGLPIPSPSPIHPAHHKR
T1 sequence (P08514 891-1039 limits assumed): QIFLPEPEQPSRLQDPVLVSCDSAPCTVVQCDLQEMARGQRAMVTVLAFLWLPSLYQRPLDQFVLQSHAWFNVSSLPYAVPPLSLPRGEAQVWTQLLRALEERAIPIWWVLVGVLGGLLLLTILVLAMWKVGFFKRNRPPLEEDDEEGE
T1 sequence (P05106 27-788): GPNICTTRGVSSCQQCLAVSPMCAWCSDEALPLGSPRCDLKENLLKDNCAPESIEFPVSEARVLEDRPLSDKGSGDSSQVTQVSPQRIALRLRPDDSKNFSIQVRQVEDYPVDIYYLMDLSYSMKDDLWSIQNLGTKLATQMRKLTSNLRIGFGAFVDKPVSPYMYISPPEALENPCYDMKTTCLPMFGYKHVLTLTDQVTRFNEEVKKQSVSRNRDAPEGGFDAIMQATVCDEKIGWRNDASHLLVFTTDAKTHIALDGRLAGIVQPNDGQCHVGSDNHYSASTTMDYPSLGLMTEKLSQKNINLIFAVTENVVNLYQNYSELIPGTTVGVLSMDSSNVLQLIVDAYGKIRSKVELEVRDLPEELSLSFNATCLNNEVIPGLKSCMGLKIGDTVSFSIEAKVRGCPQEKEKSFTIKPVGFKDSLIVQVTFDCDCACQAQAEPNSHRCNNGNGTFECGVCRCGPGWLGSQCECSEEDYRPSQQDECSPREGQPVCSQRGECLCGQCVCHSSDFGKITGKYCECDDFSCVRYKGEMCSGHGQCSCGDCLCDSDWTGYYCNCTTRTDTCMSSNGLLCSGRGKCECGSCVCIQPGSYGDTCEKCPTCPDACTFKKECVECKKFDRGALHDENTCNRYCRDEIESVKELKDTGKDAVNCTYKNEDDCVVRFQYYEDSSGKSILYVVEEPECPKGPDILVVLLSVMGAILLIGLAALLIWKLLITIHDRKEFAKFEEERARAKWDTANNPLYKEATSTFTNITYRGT

Compound | IC50 [1] | IC50 (platelet rich plasma) | IC50 (M21 human melanoma cells; Homo sapiens, M21) | IC50 (M21 human melanoma cells; hydrochloride salt)
O=C(O)CC(NC(=O)CNC(=O)c1cccc(NC2=NCCC2)c1)c1cccnc1 (stereo not drawn) [Example 17, β-[[2-[[[3-[(3,4-dihydro-2H-pyrrol-5-yl)amino]phenyl]carbonyl]amino]acetyl]amino]pyridine-3-propanoic acid, bis(trifluoroacetate)salt] | 137 nM | > 200000 nM | 3.64 nM | –
N=C(N)Nc1cccc(C(=O)NCC(=O)NC(CC(=O)O)c2ccoc2)c1 (racemic) [Example 52, (±)β-[[2-[[[3-[(aminoiminomethyl)amino]phenyl]carbonyl]amino]acetyl]amino]furan-3-propanoic acid, trifluoroacetate salt] | 139 nM | > 200000 nM | 11.7 nM | –
N=C(N)Nc1cccc(C(=O)NCC(=O)NC(CC(=O)O)c2cccs2)c1 (racemic) [Example 61, (±)β-[[2-[[[3-[(aminoiminomethyl)amino]phenyl]carbonyl]amino]acetyl]amino]thiophene-2-propanoic acid, trifluoroacetate salt] | 192 nM | > 200000 nM | 228 nM | –
Cc1ccc(O)c(C(CC(=O)O)NC(=O)CNC(=O)c2cccc(NC(=N)N)c2)c1 (racemic) [Example 88, (±)β-[[2-[[[3-[(aminoiminomethyl)amino]phenyl]carbonyl]amino]acetyl]amino]-2-hydroxy-5-methylbenzenepropanoic acid, trifluoroacetate salt] | 945 nM | > 200000 nM | 52.3 nM | –
O=C(O)CC(NC(=O)CNC(=O)c1cccc(NC2=NCCN2)c1)c1cccnc1 (racemic) [Example 10, (±)β-[[2-[[[3-[(4,5-dihydro-1H-imidazol-2-yl)amino]phenyl]carbonyl]amino]acetyl]amino]pyridine-3-propanoic acid, bis(trifluoroacetate)salt] | 54.4 nM | > 200000 nM | 1.82 nM | –
N=C(N)Nc1cccc(C(=O)NCC(=O)N[C@@H](CC(=O)O)CS(=O)(=O)c2ccccc2C(=O)O)c1 [Example 71, 2-[[2S-[[2-[[[3-[(aminoiminomethyl)amino]phenyl]carbonyl]amino]acetyl]amino]-2-(carboxymethyl)ethyl]sulfonyl]benzoic acid, TFA salt] | 202 nM | > 200000 nM | 1040 nM | –
Cc1ccc(S(=O)(=O)NCC(CC(=O)O)NC(=O)CNC(=O)c2cccc(NC(=N)N)c2)cc1 (stereo not drawn) [Example 65, 3-[[2-[[[3-[(aminoiminomethyl)amino]phenyl]carbonyl]amino]acetyl]amino]-4-[[(4-methylphenyl)sulfonyl]amino]butanoic acid, trifluoroacetate salt] | 170 nM | > 200000 nM | 13.8 nM | –
N=C(N)Nc1cccc(C(=O)NCC(=O)NC(CC(=O)O)c2cnc3ccccc3c2)c1 (stereo not drawn) [Example 99, β-[[2-[[[3-[(aminoiminomethyl)amino]phenyl]carbonyl]amino]acetyl]amino]quinoline-3-propanoic acid, bis(trifluoroacetate)salt] | 1.89 nM | 57500 nM | 0.49 nM | –
C#C[C@H](CC(=O)O)NC(=O)CNC(=O)c1cccc(NC2=NCCCCC2)c1 [Example 30, βS-[[2-[[[3-[(3,4,5,6-tetrahydro-2H-azepin-7-yl)amino]phenyl]carbonyl]amino]acetyl]amino]-4-pentynoic acid, trifluoroacetate salt] | 424 nM | > 200000 nM | 320 nM | –
O=C(O)CC(NC(=O)CNC(=O)c1cccc(NC(=O)NCc2ccccc2)c1)c1cccnc1 (racemic) [Example 47, (±)β-[[2-[[[3-[[[(phenylmethyl)amino]carbonyl]amino]phenyl]carbonyl]amino]acetyl]amino]pyridine-3-propanoic acid, hydrochloride salt] | 4270 nM | > 200000 nM | 1.18 nM | –
N=C(N)Nc1cc(C(=O)NCC(=O)NC(CC(=O)O)c2cccnc2)c2ccccc2c1 (racemic) [Example 8, (±)β-[[2-[[[3-[(aminoiminomethyl)amino]naphthalen-1-yl]carbonyl]amino]acetyl]amino]pyridine-3-propanoic acid, bis(trifluoroacetate)salt] | 9.83 nM | 73300 nM | 0.28 nM | –
Cc1ccc(S(=O)(=O)CCC(CC(=O)O)NC(=O)CNC(=O)c2cccc(NC(=N)N)c2)cc1 (racemic) [Example 67, (±)3-[[2-[[[3-[(aminoiminomethyl)amino]phenyl]carbonyl]amino]acetyl]amino]-5-[(4-methylphenyl)sulfonyl]pentanoic acid, trifluoroacetate salt] | 92.3 nM | > 200000 nM | 4.08 nM | –
C#C[C@@H](CC(=O)O)NC(=O)CNC(=O)c1cccc(NC(=N)N)c1 [Example 43, 3R-[[2-[[[(3-[(aminoiminomethyl)amino]phenyl]carbonyl]amino]acetyl]amino]-4-pentynoic acid, hydrochloride salt] | 1640 nM | > 200000 nM | – | 188 nM
O=C(O)CC(NC(=O)CNC(=O)c1cccc(NC2=NCCCCC2)c1)c1ccc2c(c1)OCO2 (racemic) [Example 14, (±)β-[[2-[[[3-[(3,4,5,6-tetrahydro-2H-azepin-7-yl)amino]phenyl]carbonyl]amino]acetyl]amino]-1,3-benzodioxole-5-propanoic acid, TFA salt] | 139 nM | > 200000 nM | 5.42 nM | –
N=C(N)Nc1cccc(C(=O)NCC(=O)NC(CC(=O)O)c2ccccc2)c1 (racemic) [Example 4, (±)β-[[2-[[[3-[(aminoiminomethyl)amino]phenyl]carbonyl]amino]acetyl]amino]benzene-propanoic acid, trifluoroacetate salt] | 473 nM | > 200000 nM | 3.3 nM | –
Cc1ccc(SCCC(CC(=O)O)NC(=O)CNC(=O)c2cccc(NC(=N)N)c2)cc1 (racemic) [Example 66, (±)3-[[2-[[[3-[(aminoiminomethyl)amino]phenyl]carbonyl]amino]acetyl]amino]-5-[(4-methylphenyl)thio]pentanoic acid, trifluoroacetate salt] | 73.7 nM | > 100000 nM | 2.51 nM | –
N=C(N)Nc1cccc(C(=O)NCC(=O)NC(CCS(=O)(=O)c2ccccc2C(=O)O)CC(=O)O)c1 (racemic) [60(C), (±)2-[3-[[2-[[[3-[(aminoiminomethyl)amino]phenyl]carbonyl]amino]acetyl]amino]-4-carboxybutyl]sulfonyl]benzoic acid, trifluoroacetate] | 16.4 nM | > 200000 nM | 0.74 nM | –
N=C(N)Nc1cccc(C(=O)NCC(=O)NC(CC(=O)O)c2cc(C(F)(F)F)cc(C(F)(F)F)c2)c1 (racemic) [Example 36, (±)β-[[2-[[[3-[(aminoiminomethyl)amino]phenyl]carbonyl]amino]acetyl]amino]-3,5-bis(trifluoromethyl)benzenepropanoic acid, trifluoroacetate salt] | 1580 nM | > 200000 nM | 143 nM | –
O=C(O)CC(NC(=O)CNC(=O)c1cccc(NC2=NCCCCC2)c1)c1ccccc1 (racemic) [Example 15, (±)β-[[2-[[[3-[(3,4,5,6-tetrahydro-2H-azepin-7-yl)amino]phenyl]carbonyl]amino]acetyl]amino]benzenepropanoic acid, trifluoroacetate salt] | 3830 nM | > 200000 nM | 202 nM | –
NC(=S)Nc1cccc(C(=O)NCC(=O)NC(CC(=O)O)c2cccnc2)c1 (stereo not drawn) [Example 114, β-[[2-[[[3-[(aminothioxomethyl)amino]phenyl]carbonyl]amino]acetyl]amino]pyridine-3-propanoic acid, trifluoroacetate salt] | 2940 nM | > 200000 nM | 200 nM | –
